Here are results for three compounds from patent US9328123B2, “Rotenone derivatives and a use thereof” (priority 2012, dated 2016).

A word on the IC50: it is the concentration needed to halve the response being measured.

One assay relates to 3T3-L1 preadipocytes. In words: Inhibition of differentiation of 3T3-L1 preadipocyte to adipocyte (oil red O staining). Particulars: 3T3-L1 cell line, concentration of 2 μM. It counts as cell-based, mouse. The method, then: To investigate inhibition effect on adipocyte differentiation in 3T3-L1 preadipocytes, mouse embryo fibroblasts were cultured in DMEM supplemented with 10% FBS to confluency. Two days later (Day 0), the cells were stimulated for the differentiation in DMEM, the differentiation medium supplemented with 10% FBS, 0.5 mM 3-isobutyl-1-methyl-xanthine, […], and […] (Day 2). For the next 6 days, the cells were cultured in DMEM supplemented with 10% FBS and 2 mM insulin (Day 8), followed by further culture in DMEM supplemented with 10% FBS for […] (Day 8). Every medium was added with 100 IU/ml of penicillin and […] of streptomycin. The cells were cultured in the presence of 95% air and 5% CO2. During the whole culture period (Day 0˜Day 8), the treatment of the rotenoisin A and B (2, 0.2, 0.02 uM) of the present invention was performed by the conventional method known to those in the art (Liu, Q.; Shin, E.; Ahn, M. J.; Hwang, B. Y.; Lee, M. K. Nat. Prod. Sci. 2011, 17, 212.) with slight modification. […]
Particularly, intracellular fat lump was stained with oil red O. 8 days after the induction of cell differentiation, the cells were washed with […] twice, followed by fixing in 10% formalin for 1 hour at room temperature. […] For quantitative analysis, oil red O was dissolved with isopropyl alcohol, followed by measuring OD500 using an ELISA reader.

The next assay has as its target pig pancreatic lipase (Sus scrofa (Pig), UniProt P00591). In words: Pancreatic lipase inhibiting activity (p-nitrophenylbutyrate hydrolysis). It counts as biochemical. The method, then: To investigate obesity treating effect of the novel rotenoisin A and B, each represented by formula 2 and formula 3 isolated and purified in <Example 2>, pancreatic lipase inhibiting activity of the same was measured.
Particularly, pancreatic lipase inhibiting activity was measured by the conventional method known to those in the art (Kim, J. H.; Kim, H. J.; Park, H. W.; Youn, S. H.; Choi, D. Y.; Shin, C. S. FEMS Microbiol. Lett. 2007, 276, 93.). To prepare the enzyme buffer, […] (10 units) of pig pancreatic lipase solution (Sigma, St. Louis, Mo.) and 1 mM EDTA (pH 6.8) were mixed with 10 mM MOPS (morpholinepropanesulphonic acid), which was added to […] of tris buffer (100 mM Tris-HCl and 5 mM CaCl2, pH 7.0). Then, […] of the rotenoisin A or B of the present invention was mixed with the prepared enzyme buffer at the experimental concentration. […] 20 mL of substrate solution containing 20 mM p-nitrophenylbutyrate dissolved in dimethyl formaide was added to the enzyme buffer, followed by culture for 15 minutes at 37° C. that was the temperature adequate for enzyme reaction. Pancreatic lipase activity was measured by measuring the hydrolysis of p-nitrophenylbutyrate into p-nitrophenol using an ELISA reader (Infinite F200; Tecan Austria GmBH, Grodig, Austria).

Sequence of pig pancreatic lipase (P00591 whole entry): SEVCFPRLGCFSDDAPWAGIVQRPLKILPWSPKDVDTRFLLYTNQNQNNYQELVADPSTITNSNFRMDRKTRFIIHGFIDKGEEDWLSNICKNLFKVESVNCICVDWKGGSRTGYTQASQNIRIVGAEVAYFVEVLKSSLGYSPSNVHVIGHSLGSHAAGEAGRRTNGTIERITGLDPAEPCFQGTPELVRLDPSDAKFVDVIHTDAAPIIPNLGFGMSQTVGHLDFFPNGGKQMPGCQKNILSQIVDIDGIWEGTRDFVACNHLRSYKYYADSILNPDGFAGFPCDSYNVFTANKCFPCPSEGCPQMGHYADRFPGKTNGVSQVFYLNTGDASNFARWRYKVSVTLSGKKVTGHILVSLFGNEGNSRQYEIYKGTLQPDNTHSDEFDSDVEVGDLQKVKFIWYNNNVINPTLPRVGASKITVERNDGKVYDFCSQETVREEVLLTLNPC

For the compound `C=C(C)[C@H]1Cc2c(ccc3c2O[C@@H]2COc4cc(OC)c(OC)cc4[C@@H]2C32CO2)O1` (some centres unmarked) [rotenoisin A], the “adipocyte differentiation inhibiting activity” value in the assay on 3T3-L1 preadipocytes (Day 8) was “approximately 70%”. Besides, the inhibition at 2 µM in the assay on 3T3-L1 preadipocytes (Mus musculus, 192 h, Day 8, read-out: adipocyte differentiation inhibiting activity) is roughly 70%. The same compound returned an IC50 against pig pancreatic lipase of 6.3 ± 0.3 µM.

`C=C(C)[C@H]1Cc2c(ccc3c2O[C@@H]2COc4cc(OC)c(OC)cc4[C@@H]2[C@]32CC3O[C@]3(O)[C@@H](O)O2)O1` (some centres unmarked) [rotenoisin B] registered an IC50 on pig pancreatic lipase of 28.4 ± 1.2 µM.

`C=C(C)[C@H]1Cc2c(ccc3c2O[C@@H]2COc4cc(OC)c(OC)cc4[C@@H]2C3=O)O1` [rotenone] displayed a half-inhibitory concentration (IC50) at pig pancreatic lipase greater than 500 µM.
